Assay results published in US5128354A, “Agent for treating ischemic brain damage” (priority 1987, dated 1992).
Like-named read-outs stand apart in the source and are kept apart here.

Tests used:
cerebral hypoxia [1] = assay: Prolonging effect on survival time of mice in normobaric hypoxia; type: in vivo, mice (STD-ddY strain, male); conditions: Mus musculus, po, read-out: Normobaric hypoxia PD30 (dose which prolonged the survival time by 30%)
Procedure: (§1) Protective effect on cerebral hypoxia
(2) Prolonging effect on survival time of mice in normobaric hypoxia
This test was carried out according to the method described in Naunyn-Schmiedeberg's Arch. Pharmacol., 334, 282-289 (1986).
Male mice of STD-ddY strain weighing […] were used in groups of 5 animals. A prescribed amount of test compounds, suspended in a 0.5% aqueous tragacanth solution, was orally administered to mice at a volume of 0.1 ml per 10 g of body weight. Two hours or one hour (for carbamazepine) after the administration of test compounds, each animal was taken in a 2.5-liter plastic chamber, and a mixed gas of 4% oxygen and 96% nitrogen was passed through the chamber at a rate of 4 liters/minute. There was measured the time to the death (respiratory cessation) of the animal. To control group was orally administered only the same volume of a 0.5% aqueous tragacanth solution. The PD30 was calculated from the dose-activity relationship. The PD30 means the dose of a test compound which prolonged the survival time by 30% in comparison with that of control group.

[2] = Arch. int. Pharmacodyn., 286, 282-298 (1987); cited from earlier work
cerebral hypoxia [3] = assay: Prolonging effect on the persistent time of gasping movements in complete ischemia; type: in vivo, mice (STD-ddY strain, male); conditions: for ED (15% prolongation): Mus musculus, po, read-out: Complete ischemia PD15 (dose which prolonged the persistent time of gasping movements by 15%)
Procedure: as §1
(1) Prolonging effect on the persistent time of gasping movements in complete ischemia
This test was carried out according to the method described in Arch. int. Pharmacodyn., 233, 136-144 (1978).
Male mice of STD-ddY strain weighing 22-26 g were used in groups of 5 animals. A prescribed amount of test compounds, suspended in a 0.5% aqueous tragacanth solution, was orally administered to mice at a volume of 0.1 ml per 10 g of body weight. Two hours or one hour (for carbamazepine) after the administration of test compounds, the necks of the animals were cut with scissors for decapitation. The persistent time of gasping movements in the isolated heads was measured. To control group was orally administered only the same volume of a 0.5% aqueous tragacanth solution. The PD15 was calculated from the dose-activity relationship. The PD15 means the dose of a test compound which prolonged the persistent time of gasping movements by 15% in comparison with that of control group.

[4] = Hypnonarcotic activity (loss of righting reflex); design: species or system mice (STD-ddY strain, male); conditions: mouse, in vivo, po
Procedure: (§2) This test was carried out according to the method described in Japan. J. Pharmacol., 13, 259-273 (1963).
(§3) Male mice of STD-ddY strain weighing 22-26 g were used in groups of 5-10 animals. A prescribed amount of test compounds, suspended in a 0.5% aqueous tragacanth solution, was orally administered to mice at a volume of 0.1 ml per 10 g of body weight. […] The HD50 was calculated by Probit method. The HD50 means the dose of a test compound which produced hypnonarcotic effect in 50% of animals.

[5] = system: delayed neuronal death in the gerbil hippocampal CA1 subfield; assay: Protective effect on delayed neuronal death in the gerbil hippocampus following a transient ischemia; type: in vivo, Mongolian gerbils (male); conditions: p.o.; for CA1 neuronal density: ± S.E., 5 min occlusion, 4 days after
Procedure: Protective effect on delayed neuronal death in the gerbil hippocampus following a transient ischemia
This test was carried out according to the method described in Brain Res., 239, 57-69 (1982).
Male Mongolian gerbils weighing 65-85 g were used in groups of 5 or 6 animals. A prescribed amount of test compounds, suspended in a 0.5% aqueous tragacanth solution, was orally administered to animals at a volume of 0.2 ml per 100 g of body weight. To control group was orally administered only the same volume of 0.5% aqueous tragacanth solution. One hour after the administration of test compounds, the necks of the gerbils were opened by a mid line incision under ether anesthesia, and then the bilateral common carotid arteries were exposed and occluded with Zen clips to block the blood flow. After 5 minutes, the clips were released and the blood flow was restored. Animals for the sham-operated group were operated in the same manner as above except that the occlusion of the carotid arteries. After 4 days, the animals were anesthetized with pentobarbital and fixed by transcardiac perfusion with a fixative solution containing 2.5% glutaraldehyde and 2% formaldehyde in 0.1M phosphate buffer (pH 7.4) at a pressure of 120 cm H2 O, and then the brains were removed. After the isolated brains were kept in the same fixative solution as above overnight, they were cut into coronal sections which contained the hippocampal area 0.5-1.0 mm posterior to the most rostral tip of the hippocampus or 1.4-1.9 mm posterior to bregma. Dissected brains were dehydrated and then embedded in paraffin. From the paraffin block, 4 μm-thin sections were prepared and subjected to hematoxylin-eosin staining.
The number of morphologically intact neurons remaining in the hippocampal CA1 subfield of the above tissue specimen was measured using a computer-image digitizer (Image Research Inc., Canada, MCID model) at a magnification of 200×, and neuronal density per mm^2 area of the right and left hippocampus, namely, the CA1 neuronal density, was calculated.
The value of the CA1 neuronal density in the table was calculated based on the average of the numbers of the remaining neurons in the right and left hippocampus of each animal. Student's t-test was used for the statistical analysis.

in vivo = type: in vivo; conditions: mouse, in vivo, po; mice, p.o.; mortality observed for 7 days; Probit method; read-out: Acute toxicity LD50
Procedure: (§4) Male mice of STD-ddY strain weighing 22-26 g were used in groups of 5-10 animals. A prescribed amount of test compounds, suspended in a 0.5% aqueous tragacanth solution, was orally administered to mice at a volume of 0.2 ml per 10 g of body weight.

mice [6] = assay: Hypnonarcotic activity (loss of righting reflex); design: species or system mice (STD-ddY strain, male); conditions: mouse, in vivo, po, 200 mg/kg
Procedure: as §2, §3

mice [7] = assay: in vivo; type: in vivo; conditions: p.o.
Procedure: as §4

[8] = mice, p.o., 4% oxygen/96% nitrogen, 2 h (1 h for carbamazepine) after administration
[9] = mice, p.o., 2 h (1 h for carbamazepine) after administration

| Structure (SMILES) | ED (30% prolongation) (cerebral hypoxia [1]; [8]) [mg/kg] | effect against cerebral hypoxia (in words) [2] | ED (15% prolongation) (cerebral hypoxia [3]; [9]) [mg/kg] | TD50 ([4]; mice, p.o., righting reflex lost for 60 minutes or more, Probit method, read-out: Hypnonarcotic activity HD50 (dose which produced hypnonarcotic effect in 50% of animals)) [mg/kg] | CA1 neuronal density ([5]; 10 mg/kg) | CA1 neuronal density ([5]; 30 mg/kg) | protective effect on delayed neuronal death (in words) ([5]; 100 mg/kg) | CA1 neuronal density ([5]; 100 mg/kg) | ED (30% prolongation) (cerebral hypoxia [1]) [mg/kg] | ED (15% prolongation) (cerebral hypoxia [3]) [mg/kg] | LD50 at 168 h (in vivo) [mg/kg] | Clonic convulsion and death (mice [6]) | TD50 [4] [mg/kg] | protective effects on cerebral hypoxia compared with reference drugs (Table 1) (cerebral hypoxia [3]; mice, p.o., complete ischemia and normobaric hypoxia (also A2)) | protective effect on delayed neuronal death (in words) ([5]; 30 mg/kg) | toxicity (in words) (mice [7]) |
| --- | --- | --- | --- | --- | --- | --- | --- | --- | --- | --- | --- | --- | --- | --- | --- | --- |
| NC(=O)N1c2ccccc2C=Cc2ccccc21 [Carbamazepine] | 19.6 | effective against cerebral hypoxia | 5.5 | 345 | 482 ± 272 number of cells/mm^2 | 932 ± 353 number of cells/mm^2 | relatively weak protective effect | 1235 ± 330 number of cells/mm^2 |  |  |  |  |  |  |  |  |
| CCC1(c2ccccc2)C(=O)NC(=O)NC1=O [Phenobarbital] |  |  |  |  |  |  |  |  | 26.8 | 15 | 201 |  |  |  |  |  |
| O=C1NC(=O)C(c2ccccc2)(c2ccccc2)N1 [Phenytoin] | 22.7 | effective against cerebral hypoxia | 5.5 |  |  | 228 ± 87 number of cells/mm^2 | relatively weak protective effect | 1464 ± 503 number of cells/mm^2 |  |  |  | convulsion in all mice and of death in some mice | > 200 |  |  |  |
| NS(=O)(=O)Cc1noc2ccccc12 [The active compound of the invention, 3-Sulfamoylmethyl-1,2-benzisoxazole] |  |  |  |  | 519 ± 28 number of cells/mm^2 | 2713 ± 228 number of cells/mm^2 | almost completely prevented the delayed neuronal death | 3326 ± 49 number of cells/mm^2 | 29.4 | 6 | 1890 |  | 934 | comparable to those of phenobarbital, phenytoin and carbamazepine | extremely strong protective effect | weak |
